Measured values reported in patent US20180333382A1, “PHARMACEUTICAL COMPOSITIONS COMPRISING DGLA AND USE OF SAME” (DS Biopharma Limited, priority 2017, published 2018).
Read-outs that look alike come from different tables or passages of the source.

Tests used:
[1] = Phase one study part 2: free and total DGLA in skin blister fluid; assay type: in vivo, human
Description: The PK of DGLA in human skin following multiple doses of DS107G capsule given once daily for 28 days to healthy subjects.

[2] = tested on: patients with moderate to severe atopic dermatitis having high eosinophil levels; test: Post hoc stratification of the phase II study: subgroup with high eosinophil > 0.3 × 10^9/L; assay type: in vivo, human; settings: daily, 8 weeks
Description: Further to the randomized, double-blind, placebo-controlled, phase II study of Example 2 above, a post hoc stratification analysis was performed using the results of that study to assess the efficacy of orally administered DS107G (DGLA) to patients with moderate to severe atopic dermatitis having normal eosinophil levels of less than about 0.3×10^9/L compared to the same population receiving placebo and/or to the total study population. The primary objective of the post hoc stratification study was to compare the efficacy of orally administered DS107G capsules, versus placebo, in the treatment of adult patients with moderate to severe atopic dermatitis having normal eosinophil levels of less than about 0.3×10^9/L. The secondary objective was to compare the efficacy of orally administered DS107G capsules in the treatment of adult patients with moderate to severe atopic dermatitis having normal eosinophil levels of less than about 0.3×10^9/L versus the total study population. Unless stated otherwise, all elements of the post hoc stratification analysis were the same as those of the phase II study described in Example 2 above.
A comparison of the total study population (see column “DS107 Phase 2a I.T.T.”), patients having normal eosinophil levels, and patients having high eosinophil levels separated by patients who received DS107 or placebo is shown in Table 32 below.

[3] = Phase one study: safety and tolerability (TEAEs, vital signs, ECG); settings: for tolerability: healthy volunteers
Description: Screening procedures were conducted for both parts one and two before the start of the study on Day −1 (Baseline) by evaluating the safety assessments.
Subjects were monitored throughout their confinement at the Phase 1 unit for adverse reactions to the study drug and/or procedures.
Safety analyses were performed on the safety population tabulated by treatment arm, cohort, and visit. All safety data were characterized by descriptive statistical tools. […] Evaluation of safety assessments was performed in a descriptive manner. Continuous variables were characterized by their mean, standard deviation (SD), median, minimum and maximum values; discrete variables were characterized by their absolute (frequency) and relative (percentage) distribution.

[4] = Phase one study: effect of food on single 1000 mg dose PK (fasted vs fed); assay type: in vivo, human; settings: for AUC0-24, mean, free DGLA, baseline-corrected plasma / AUC0-24/Dose, mean, free DGLA, baseline-corrected plasma / AUC0-24/Dose, mean, total DGLA, baseline-corrected plasma / AUC0-inf, mean, free DGLA, baseline-corrected plasma / AUC0-inf/Dose, mean, free DGLA, baseline-corrected plasma / CL/F, mean, free DGLA, baseline-corrected plasma / Cmax, mean, free DGLA, baseline-corrected plasma / Cmax/Dose, mean, free DGLA, baseline-corrected plasma / Cmax/Dose, mean, total DGLA, baseline-corrected plasma / λz, mean, free DGLA, baseline-corrected plasma / λz, mean, total DGLA, baseline-corrected plasma / half-life / Tmax: 1000 mg single dose; for mean baseline-corrected AUC0-24, total DGLA vs free DGLA / mean baseline-corrected Cmax, total DGLA vs free DGLA / half-life / Tmax: 1000 mg; for half-life / Tmax: human, plasma, oral; for half-life: read-out: t1/2, median, free DGLA, baseline-corrected plasma (converted); for Tmax: read-out: tmax, median, free DGLA, baseline-corrected plasma
Description: Subjects were randomly assigned in a 3:1 ratio of DG107G to placebo by block randomization. Single dose part one of the study comprised three cohorts of eight subjects each, with the addition of Cohort four based on evaluation of the safety data of Cohort three by the Safety Monitoring Committee (SMC). A single oral dose of DS107G or matching placebo was administered to fasted subjects in Cohorts one to three (500, 1000, and 2000 mg, respectively) in parallel; subjects in Cohort four were administered a dose of 4000 mg following completion of Cohort three. Subjects in Cohort two received 1000 mg or matching placebo in the fed state at 14 days after the first dose.
Food effect was evaluated in Cohort two at least 14 days after the first dose at which time a second single dose was administered. Subjects were administered a 1000-mg dose of study drug with 240 mL of water after a 10-hour fasting period and 30 minutes after starting consumption of a meal. Subjects then refrained from food intake for at least 4 hours after dosing. Food consumption was standardized for at least 12 hours after dosing using a standardized high-fat meal (800 to 1000 kcal with 500 to 600 kcal from fat and 250 kcal from carbohydrates). A typical standard test meal consisted of two eggs fried in butter, two strips of bacon, two slices of toast with butter, 120 mL of hash brown potatoes, and 240 mL of whole milk.
Subjects in Cohort two undergoing evaluation of the food effect on oral 1000 mg DGLA capsules were restricted from food consumption for at least 4 hours after dosing. Food consumption was standardized for at least 12 hours post dose using a standardized high-fat meal.

For `CCCCC/C=C\C/C=C\C/C=C\CCCCCCC(=O)O` [DS107G, Dihomo gamma linolenic acid], which “mean free DGLA concentrations in skin blister fluid with a doubling in dose” value ([1]; Days 1, 8, 14 and 28) is on record?
The value was “approximately doubled”.

And the “mean free DGLA concentrations in skin blister fluid, Day 28 vs Day 1” value ([1]; both 2000 and 4000 mg daily)?
The value was “about 3 fold”.

And the “mean concentrations of free DGLA, plasma vs skin blister fluid” value ([1]; same dose, Day 8 and Day 14 (but not Day 28))?
Its value is “somewhat similar in plasma and skin blister fluid”.

What about the “mean concentrations of total DGLA, plasma vs skin blister fluid” value ([1]; same dose, after Day 1) of the same compound?
The value was “much higher in plasma than in skin blister fluid”.

What about the “BSA Change from Baseline” value [2] of the same compound?
The value was −14.9%.

What about the “EASI Percentage Change from Baseline” value [2] of the same compound?
The value was −20.1%.

And the “EASI-50 (%)” value [2]?
Its value is 22.7%.

What about the “EASI-75 (%)” value [2] of the same compound?
Its value is 9.1%.

And the “IGA responder (%)” value [2]?
Its value is 0%.

What about the “Pruritus Percentage Change from Baseline” value [2] of the same compound?
The value was −6.5%.

What about the tolerability ([3]; 2000- or 4000-mg once daily for 28 consecutive days) of the same compound?
Its tolerability is “tolerated well”.

What about the subjects reporting diarrhea ([3]; 2000-mg group, 3/6) of the same compound?
The subjects reporting diarrhea was 50%.

And the subjects reporting diarrhea ([3]; 4000-mg group, 4/6)?
The subjects reporting diarrhea was 66.7%.

What about the subjects reporting nausea ([3]; 4000-mg treatment group, 4/6, 10 events) of the same compound?
Its subjects reporting nausea is 66.7%.

What about the deaths ([3]; multi-dose study) of the same compound?
Its deaths is “no deaths”.

And the “severe TEAEs” value ([3]; multiple dose)?
The value was “no severe TEAEs”.

And the “incidence of TEAEs” value ([3]; multiple dose, 11/12 active-treated subjects, total of 52 TEAEs)?
Its value is 91.73%.

And the tolerability ([3]; single dose 500, 1000, 2000 or 4000 mg)?
Its tolerability is “well tolerated”.

And the “incidence of diarrhea (loose stool)” value ([3]; single dose, 5/24 active-treated subjects)?
Its value is 20.8%.

And the “AUC0-24, mean, free DGLA, baseline-corrected plasma” value ([4]; fasted)?
Its value is 3998.5 ng·h/mL.

What about the “AUC0-24/Dose, mean, free DGLA, baseline-corrected plasma” value ([4]; fasted) of the same compound?
Its value is 4.00 h/kL.

And the “AUC0-24/Dose, mean, total DGLA, baseline-corrected plasma” value ([4]; fasted)?
Its value is 215.37 h/kL.

And the “AUC0-inf, mean, free DGLA, baseline-corrected plasma” value ([4]; fasted)?
The value was 218955.6 ng·h/mL.

And the “AUC0-inf/Dose, mean, free DGLA, baseline-corrected plasma” value ([4]; fasted)?
Its value is 218.96 h/kL.

And the “CL/F, mean, free DGLA, baseline-corrected plasma” value ([4]; fasted)?
Its value is 0.1866 kL/h.

And the “Cmax, mean, free DGLA, baseline-corrected plasma” value ([4]; fasted)?
Its value is 1602.8 ng/mL.

And the “Cmax/Dose, mean, free DGLA, baseline-corrected plasma” value ([4]; fasted)?
Its value is 1.603 kL⁻¹.

And the “Cmax/Dose, mean, total DGLA, baseline-corrected plasma” value ([4]; fasted)?
Its value is 15.750 kL⁻¹.

And the “λz, mean, free DGLA, baseline-corrected plasma” value ([4]; fasted)?
Its value is 0.0487 h⁻¹.

And the “λz, mean, total DGLA, baseline-corrected plasma” value ([4]; fasted)?
Its value is 0.0136 h⁻¹.

And the “AUC0-24, mean, free DGLA, baseline-corrected plasma” value ([4]; fed)?
The value was 2102.7 ng·h/mL.

And the “AUC0-24/Dose, mean, free DGLA, baseline-corrected plasma” value ([4]; fed)?
Its value is 2.10 h/kL.

And the “AUC0-24/Dose, mean, total DGLA, baseline-corrected plasma” value ([4]; fed)?
The value was 117.39 h/kL.

And the “AUC0-inf, mean, free DGLA, baseline-corrected plasma” value ([4]; fed)?
The value was 29150.8 ng·h/mL.

What about the “AUC0-inf/Dose, mean, free DGLA, baseline-corrected plasma” value ([4]; fed) of the same compound?
Its value is 29.15 h/kL.

What about the “CL/F, mean, free DGLA, baseline-corrected plasma” value ([4]; fed) of the same compound?
Its value is 0.1658 kL/h.

What about the “Cmax, mean, free DGLA, baseline-corrected plasma” value ([4]; fed) of the same compound?
Its value is 520.2 ng/mL.

And the “Cmax/Dose, mean, free DGLA, baseline-corrected plasma” value ([4]; fed)?
Its value is 0.520 kL⁻¹.

And the “Cmax/Dose, mean, total DGLA, baseline-corrected plasma” value ([4]; fed)?
Its value is 10.317 kL⁻¹.

What about the “λz, mean, free DGLA, baseline-corrected plasma” value ([4]; fed) of the same compound?
The value was 0.0403 h⁻¹.

What about the “λz, mean, total DGLA, baseline-corrected plasma” value ([4]; fed) of the same compound?
The value was 0.0805 h⁻¹.

What about the “mean baseline-corrected AUC0-24, total DGLA vs free DGLA” value ([4]; fasted) of the same compound?
The value was roughly 54 fold.

And the “mean baseline-corrected Cmax, total DGLA vs free DGLA” value ([4]; fasted)?
The value was roughly 10 fold.

What about the “mean baseline-corrected AUC0-24, total DGLA vs free DGLA” value ([4]; fed) of the same compound?
Its value is roughly 56 fold.

What about the “mean baseline-corrected Cmax, total DGLA vs free DGLA” value ([4]; fed) of the same compound?
The value was roughly 20 fold.

And the half-life ([4]; fasted)?
Its half-life is 28.3 h.

And the Tmax ([4]; fasted)?
The Tmax was 4 h.

What about the half-life ([4]; fed) of the same compound?
The half-life was 141 h.

What about the Tmax ([4]; fed) of the same compound?
Its Tmax is 5 h.

What about the “free DGLA Cmax occurred sooner under fasted than fed conditions (median)” value ([4]; single 1000-mg dose) of the same compound?
The value was 1 h.

What about the “higher rate and extent of total DGLA absorption under fasted conditions (mean Cmax and AUC0-24)” value ([4]; single 1000-mg dose) of the same compound?
The value was “approximately 50%”.

What about the “mean baseline-corrected free DGLA Cmax, fasted vs fed” value ([4]; single 1000-mg dose) of the same compound?
The value was “about 3 fold”.

And the “mean free DGLA baseline-corrected AUC0-24, fasted vs fed” value ([4]; single 1000-mg dose)?
Its value is “about 2 fold”.

What about the “total DGLA mean baseline-corrected AUC0-24, fasted vs fed” value ([4]; single 1000-mg dose) of the same compound?
Its value is “about 1.8 fold”.

And the “total DGLA mean baseline-corrected Cmax, fasted vs fed” value ([4]; single 1000-mg dose)?
Its value is “about 1.5 fold”.

What about the “total DGLA tmax occurred sooner under fasted than fed conditions” value ([4]; single 1000-mg dose) of the same compound?
The value was “about 50%”.
